Data: ChEMBL document CHEMBL1926670, “1,2-Benzothiazine 1,1-dioxide carboxylate derivatives as novel potent inhibitors of aldose reductase” (Bioorg Med Chem, 2011)

Assays:
[1] = target: Aldo-keto reductase family 1 member A1 (Rattus norvegicus, UniProt P51635); test: Inhibition of Wistar rat kidney ALR1 using D-glucuronate as substrate after 10 mins by UV/VIS double spectrophotometric analysis
[2] = target: Aldo-keto reductase family 1 member B1 (Rattus norvegicus, UniProt P07943); test: Inhibition of Wistar rat lens ALR2 using D,L-glyceraldehyde as substrate after 10 mins by UV/VIS double spectrophotometric analysis; format: tissue-based, Lens of camera-type eye
[3] = target: Aldo-keto reductase family 1 member B1 (Rattus norvegicus) (UniProt P07943); test: Inhibition of Wistar rat lens ALR2 using D,L-glyceraldehyde as substrate at 10 uM after 10 mins by UV/VIS double spectrophotometric analysis; format: tissue-based; settings: Lens of camera-type eye

Aldo-keto reductase family 1 member A1, sequence (P51635 whole entry, looked up): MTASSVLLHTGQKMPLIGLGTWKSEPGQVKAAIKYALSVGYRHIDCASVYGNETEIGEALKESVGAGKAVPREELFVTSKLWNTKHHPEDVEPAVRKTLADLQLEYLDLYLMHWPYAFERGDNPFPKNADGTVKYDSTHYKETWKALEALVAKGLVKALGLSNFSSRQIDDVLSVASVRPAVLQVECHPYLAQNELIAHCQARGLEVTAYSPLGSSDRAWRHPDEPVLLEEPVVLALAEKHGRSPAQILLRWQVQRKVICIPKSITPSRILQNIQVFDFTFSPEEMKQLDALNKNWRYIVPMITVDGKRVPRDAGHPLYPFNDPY

| SMILES | IC50 [1] [µM] | IC50 [2] [nM] | inhibition [3] [%] |
| --- | --- | --- | --- |
| O=C(O)/C=C1\CN(Cc2ccc(C(F)(F)F)cc2)S(=O)(=O)c2ccccc21 (mixture of isomers) |  | 6130 |  |
| O=C(O)/C=C1\CN(Cc2ccccc2F)S(=O)(=O)c2ccccc21 (mixture of isomers) |  | 2130 |  |
| O=C(O)/C=C1\CN(Cc2cc(C(F)(F)F)cc(C(F)(F)F)c2)S(=O)(=O)c2ccccc21 (mixture of isomers) |  |  | 32 |
| O=C(O)CC1CN(Cc2cc(C(F)(F)F)cc(C(F)(F)F)c2)S(=O)(=O)c2ccccc21 (racemic) |  | 10400 |  |
| O=C(O)CC1CN(Cc2ccc(C(F)(F)F)cc2)S(=O)(=O)c2ccccc21 (racemic) |  | 5300 |  |
| O=C(O)CC1CN(Cc2ccccc2F)S(=O)(=O)c2ccccc21 (racemic) |  | 1730 |  |

Continued, values first:

| IC50 [1] [µM] | IC50 [2] [nM] | inhibition [3] [%] | SMILES |
| --- | --- | --- | --- |
| > 10 | 590 |  | O=C(O)/C=C1\CN(Cc2cc(F)c(F)cc2F)S(=O)(=O)c2ccccc21 (mixture of isomers) |
| > 10 | 110 |  | O=C(O)/C=C1\CN(Cc2ccc(Br)cc2F)S(=O)(=O)c2ccccc21 (mixture of isomers) |
| > 10 | 140 |  | O=C(O)/C=C1\CN(Cc2cccc([N+](=O)[O-])c2)S(=O)(=O)c2ccccc21 (mixture of isomers) |
| > 10 | 340 |  | O=C(O)CC1CN(Cc2cc(F)c(F)cc2F)S(=O)(=O)c2ccccc21 (racemic) |
